Results on 4 compounds are retold here after patent publication US5091386A, “7-substituted derivatives of 3,5-dihydroxyhept-6-ynoic acids and corresponding lactones and their use as hypercholeserolemics” (Hoechst Aktiengesellschaft, priority 1988, dated 1992).

In general, IC50 refers to the concentration at which inhibition is half-maximal. The low end stands for greater potency in that assay, the high end for weaker potency in that assay.

Each structure is given as a SMILES string.

One assay has as its target T1, HMG-CoA reductase (Rattus norvegicus, UniProt P51639).
T1 construct: solubilized enzyme preparations from liver microsomes of rats; from tissue; host or cells: rat liver microsomes (solubilized), rats induced with cholestyramine
T1 sequence (P51639 1-887): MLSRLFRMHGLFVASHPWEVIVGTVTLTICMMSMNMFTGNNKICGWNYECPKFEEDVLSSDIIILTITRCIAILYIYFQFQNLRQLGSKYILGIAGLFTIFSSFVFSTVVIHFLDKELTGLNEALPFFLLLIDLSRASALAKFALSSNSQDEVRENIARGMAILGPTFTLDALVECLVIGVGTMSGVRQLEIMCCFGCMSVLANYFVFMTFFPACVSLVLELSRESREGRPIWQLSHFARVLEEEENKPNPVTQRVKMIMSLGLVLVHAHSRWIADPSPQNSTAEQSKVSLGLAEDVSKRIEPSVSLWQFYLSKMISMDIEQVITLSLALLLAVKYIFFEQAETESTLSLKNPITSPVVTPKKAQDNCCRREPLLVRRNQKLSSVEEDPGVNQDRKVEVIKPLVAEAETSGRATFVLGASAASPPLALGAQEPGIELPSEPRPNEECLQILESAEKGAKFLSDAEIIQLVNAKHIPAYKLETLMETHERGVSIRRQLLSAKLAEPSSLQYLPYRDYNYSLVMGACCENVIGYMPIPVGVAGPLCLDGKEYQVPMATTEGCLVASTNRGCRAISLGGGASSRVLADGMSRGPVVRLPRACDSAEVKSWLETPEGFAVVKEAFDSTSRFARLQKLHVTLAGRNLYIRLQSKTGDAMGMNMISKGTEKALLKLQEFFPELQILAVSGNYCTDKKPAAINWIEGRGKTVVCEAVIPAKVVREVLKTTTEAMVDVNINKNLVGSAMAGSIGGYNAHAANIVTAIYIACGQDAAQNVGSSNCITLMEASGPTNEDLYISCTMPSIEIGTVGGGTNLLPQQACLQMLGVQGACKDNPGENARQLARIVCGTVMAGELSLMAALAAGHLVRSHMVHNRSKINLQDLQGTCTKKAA
The experiment in a line: HMG-CoA reductase activity in enzyme preparations (solubilized enzyme from liver microsomes of rats). It is filed as biochemical. Conditions: (SmR) 14C-HMG-CoA substrate. As for the experimental part: The HMG-CoA reductase activity was measured on solubilized enzyme preparations from liver microsomes of rats which had been induced with cholestyramine (®Cuemid) after changing the day/night rhythm. (Sm R) ^14 C-HMG-CoA was used as substrate, and the concentration of NADPH was maintained during the incubation by a regenerating system. ^14 C-mevalonate was separated from the substrate and other products (for example ^14 C-HMG) by column elution, with the elution profile of each individual sample being determined. ^3 H-Mevalonate was not always included because the object was to determine relative data on the inhibitory effect. In each test series the enzyme-free control, the enzyme-containing normal mixture (=100%) and those with added product, final concentration 10^-5 to 10^-9 M, were treated together. Each individual value was formed as the mean of 3 parallel samples. The significance of the differences between means for product-free and product-containing samples was assessed by the t test.
Using the method described above, for example, the following values for the inhibition of HMG-CoA reductase were found for the compounds according to the invention [IC50 /mol/liter denotes the molar concentration of the compound per liter required for a 50% inhibition]. […]
(Liver microsomes are vesicles of endoplasmic reticulum, rich in cytochrome P450 enzymes.)

The test system of assay [1] is cholesterol biosynthesis in HEP-G2 cells. The experiment in a line: Inhibition of cholesterol biosynthesis in HEP-G2 cell cultures. The conditions noted are these: for IC50: Homo sapiens, HepG2, 14C-cholesterol formed from 14C-precursor; for relative activity (IC50 ref./IC50): vs analogous hept-6E-enoic acid derivative. It is filed as cell-based. As for the experimental part:
Monolayers of HEP-G2 cells in lipoprotein-free nutrient medium were preincubated with the appropriate concentrations of the test substances for a defined time (for example 1 hour) and, after addition of the labeled precursor, for example sodium ^14 C-acetate, the incubation was continued (for example for 3 hours). After addition of an internal standard (^3 H-cholesterol) a portion of the cells was subjected to alkaline hydrolysis. The lipids from the hydrolyzed cells were extracted with chloroform/methanol. This lipid mixture was, after addition of carrier cholesterol, subjected to preparative thin-layer chromatography, the cholesterol band was visualized with iodine vapor and then isolated, and the amount of ^14 C-cholesterol formed from the ^14 C-precursor was determined by scintigraphy. Cell protein was determined in an aliquot of the cells so that it is possible to calculate the amount of ^14 C-cholesterol formed in unit time per mg of cell protein. The inhibitory effect of the particular test product on cholesterol biosynthesis by HEP-G2 cell cultures emerged by comparison of this figure with the amount of ^14 C-cholesterol formed per mg of cell protein and unit time in a culture treated in the same way but free of test substance.
Testing of substances for inhibition of cholesterol biosynthesis in confluent cell cultures (monolayers) of HEP-G2 cells [drawing 17]
Using the method described above, for example the following figures for the inhibition of cholesterol biosynthesis (in HEP-G2 cells) were found for the compounds according to the invention (the IC50 /mol is that concentration of the compound which brings about 50% inhibition of cholesterol biosynthesis). IC50 values were determined for the compounds according to the invention as well as for identically substituted 3,5-dihydroxyhept6E-enoic acid derivatives (IC50 ref.). The quotient IC50 ref./IC50 yielded the relative activity of the compounds according to the invention. […] This corresponds to a relative activity of 1.6 based on the analogous hept-6E-enoic acid derivative.

In the case of `CC(C)c1nc(-c2ccccc2)cc(-c2ccc(F)cc2)c1C#C[C@@H](O)C[C@@H](O)CC(=O)O` (relative stereo) [Example 7a, sodium 3RS, 5SR-dihydroxy-7-(4-(4-fluorophenyl)-2-(1-methylethyl)-6-phenylpyridin-3-yl)hept-6-ynoate], the concentration for half-maximal inhibition (IC50) against HMG-CoA reductase is 3 nM.
Still for that read-out and setting: for `CC(C)C(C#C[C@@H](O)C[C@@H](O)CC(=O)O)=C(c1ccc(F)cc1)c1ccc(F)cc1` (relative stereo) [Example 7l] the value was 5.7 nM.
As for `CC(C)c1nc(-c2ccccc2)cc(-c2ccc(F)cc2)c1C#C[C@@H]1C[C@@H](O)CC(=O)O1` (relative stereo) [Example 8a, 6RS-2-(4-(4-Fluorophenyl)-2-(1-methylethyl)-6-phenylpyridin-3-yl)ethynyl-4SR-hydroxy-3,4,5,6-tetrahydro-2H-pyran-2-one], in assay [1], the IC50 was found to be 9 nM and the “relative activity (IC50 ref./IC50)” value came out at 2.67.
For the compound `CC(C)c1nc(-c2ccc(F)cc2)nc(-c2ccc(F)cc2)c1C#C[C@@H]1C[C@@H](O)CC(=O)O1` (relative stereo) [Example 8e], in assay [1], the IC50 worked out at 11 nM and the “relative activity (IC50 ref./IC50)” value worked out at 1.6.
